Experimental data reported in ChEMBL document CHEMBL1649182, “Binding of faropenem and other beta-lactam agents to penicillin-binding proteins of pneumococci with various beta-lactam susceptibilities” (Antimicrob Agents Chemother, 2009).
Converted amounts (≈) assume the structure as drawn.

Tests used:
[1] = Displacement of Biocillin FL from Streptococcus pneumoniae 24 PBP3
Streptococcus pneumoniae = assay: Antimicrobial activity against Streptococcus pneumoniae serotype 19A; assay type: functional

Row | Compound | IC50 [1] [µg/mL] | MIC90 (Streptococcus pneumoniae) [µg/mL]
1 | C[C@@H](O)[C@H]1C(=O)N2C(C(=O)O)=C(SCCNC=N)C[C@H]12 [IMIPENEM ANHYDROUS] | 0.2 (≈ 0.668 µM) | 
2 | CC1(C)S[C@@H]2[C@H](NC(=O)[C@H](N)c3ccc(O)cc3)C(=O)N2[C@H]1C(=O)O [AMOXICILLIN] | 0.049 (≈ 0.134 µM) | 
3 | C[C@@H](O)[C@H]1C(=O)N2C(C(=O)O)=C([C@H]3CCCO3)S[C@H]12 [FAROPENEM] | 0.015 (≈ 0.0526 µM) | 1 (≈ 3.5 µM)
4 | CC1(C)S[C@@H]2[C@H](NC(=O)Cc3ccccc3)C(=O)N2[C@H]1C(=O)O [PENICILLIN G] | 0.004 (≈ 0.012 µM) | 
5 | CO/N=C(\C(=O)N[C@@H]1C(=O)N2C(C(=O)O)=C(COC(N)=O)CS[C@H]12)c1ccco1 [CEFUROXIME] | 0.002 (≈ 0.00471 µM) | 
